Measurements from US20250049819A1, “METHODS FOR TREATING AND PREVENTING C. DIFFICILE INFECTION” (Paratek Pharmaceuticals, Inc., priority 2016, published 2025).
Values after ≈ are worked out from the molar mass of the structure shown. Like-named read-outs stand apart in the source and are kept apart here.

Assays:
[1] = test system: gut microflora populations; experiment: In vitro human gut model, gut microflora populations (Example 4); assay type: cell-based
Method: (§1) The gut model was inoculated with pooled fecal slurry (5 volunteers ≥60 years of age with no history of antibiotic therapy in the previous 3 months) and left for 2 weeks to allow the bacterial populations to achieve steady state. A single inoculum (˜10^7 cfu/mL) of C. difficile spores (PCR ribotype 027 strain 210) was added into vessel 1 of the gut model on day 14. One week later, on day 21, a second aliquot of C. difficile spores was added, and antibiotic instillation commenced. Model A (LHS) was exposed to moxifloxacin (43 mg/L, once daily, for 7 days) and Model B (RHS) was exposed to omadacycline (430 mg/L, once daily, for 7 days) commenced on day 21.
(§2) Bacterial populations in the gut model were monitored using selective agars to count viable bacterial colonies. Populations were monitored every other day for the first 2 weeks until the steady state was reached, and daily thereafter. C. difficile populations were monitored in all three vessels, and all other bacterial groups (total obligate anaerobes, total facultative anaerobes, lactose fermenting Enterobacteriaceae, Enterococci, total Clostridia, Lactobacilli, Bifidobacteria and B. fragilis group) were monitored in vessels 2 and 3 only. Vessel 3, which represents the distal colon, is of most physiological relevance in terms of propensity to induce CDI. C. difficile total viable counts and spores counts were monitored using viable counting and a differential alcohol shock viable count on selective agars. From day 14 onwards C. difficile cytotoxin was measured using a quantitative VERO cell cytotoxicity assay. Samples of 1 mL each were centrifuged at 16,000×g for 15 minutes, and the supernatants were removed. Six 1:10 serial dilutions (to 10^−6) of culture supernatants from the gut model were prepared. Twenty microliters of the appropriate dilution was added to VERO cell monolayers and a further 20 μL of C. sordellii antitoxin (diluted 1:10 in sterile distilled water) was placed in the corresponding antitoxin row. Monolayers were examined after 24 and 48 hours of incubation in 5% CO2, with a positive result indicated by the presence of cell rounding with concurrent neutralization of the effect by C. sordellii antitoxin. Cytotoxin titers (relative units, RU) were an arbitrary log10 scale, and the cytotoxin titer is reported in the highest dilution with >70% cell rounding, i.e. 10^0=1 RU, 10^−1=2 RU, 10^−2=3 RU. Samples were taken daily from day 21 onwards to determine antimicrobial concentrations in the gut model vessels by a bioassay. Concentrations of moxifloxacin were determined using Isosensitest agar with Escherichia coli as the indicator organism. Concentrations of omadacyline were determined using Wilkins Chalgren agar with Kocuria rhizophila as the indicator organism.

[2] = test system: C. difficile strain ATCC 43596; experiment: Hamster model of C. difficile-associated diarrhea, survival; assay type: in vivo
[3] = test system: C. difficile strain ATCC 43596; experiment: MIC90 against the infection model strain; assay type: cell-based; conditions: Clostridioides difficile, ATCC43596
[4] = test system: C. difficile PCR ribotype 027 strain 210; experiment: In vitro human gut model, C. difficile germination, proliferation and toxin production (Example 4); assay type: cell-based
Method: as §1, §2

[5] = test system: C. difficile PCR ribotype 027 strain 210; experiment: In vitro human gut model, C. difficile germination, proliferation and toxin production (Example 3); assay type: cell-based; conditions: 430 mg/L once daily for 7 days
Excerpt: An in vitro gut model was used to study the effects of omadacycline instillation on both normal microflora populations and C. difficile. This gut model has been validated against gut contents from sudden death victims and provides a very close simulation of bacterial activities and composition in different areas of the hindgut (Macfarlane et al., Microb. Ecol. 35, 180-7, 1998). The model consists of three vessels aligned in series, and top-fed with a complex growth medium. All three vessels are continuously stirred, anaerobically maintained at 37° C. and regulated to reflect in vivo differences, including pH, from proximal to distal colon. The three anaerobic fermentation vessels are maintained at increasing alkalinity (from pH 5.5±0.2 for vessel 1; pH 6.2±0.2 for vessel 2; and pH 6.8±0.2 for vessel 3). The increasing alkalinity in combination with the nutrient limited conditions are designed to simulate the human gut from the proximal to the distal colon. […] At this stage, dietary ingredients, prebiotics, pathogens and/or antibiotics may be added, and the bacterial populations monitored. Specific components of the gut flora and relevant pathogens may be closely monitored and their behavior analyzed. […]
Gut microbiota bacterial populations and C. difficile total viable counts and spore counts were enumerated daily by culture on selective and non-selective agars. C. difficile populations were monitored in all three vessels, and all other bacterial groups (total obligate anaerobes, total facultative anaerobes, lactose fermenting enterobacteriaceae, enterococci, total clostridia, lactobacilli, bifidobacteria, B. fragilis group) were monitored in vessels 2 and 3 only. […] C. difficile total viable counts and spores counts were monitored using viable counting and a differential alcohol shock viable count on selective agars.
From day 14 onwards C. difficile cytotoxin was measured using a quantitative VERO cell cytotoxicity assay. […] Concentrations of omadacyline were measured by large-plate bioassay using Wilkins Chalgren agar with Kocuria rhizophila as the indicator organism.

[6] = Elimination of an oral dose via the biliary/fecal pathway; assay type: in vivo
[7] = vessels 2 and 3, once daily for 7 days
[8] = oral 50 mg/kg/day for 5 days, N=10

Structure (SMILES): CN(C)c1cc(CNCC(C)(C)C)c(O)c2c1C[C@H]1C[C@H]3[C@H](N(C)C)C(O)=C(C(N)=O)C(=O)[C@@]3(O)C(O)=C1C2=O (stereo in doubt) [Omadacycline]
- recovery of populations after end of dosing ([1]; all populations): returned to pre-antibiotic exposure levels by the end of the experiment
- Enterobacteriaceae populations ([1]; particularly in vessel 2): increased during omadacycline exposure
- decline in B. fragilis group [1, 7]: ~8 log10 cfu/mL
- decline in Bifidobacteria [1, 7]: ~8 log10 cfu/mL
- decline in Enterococcus spp. / Enterococci populations [1, 7]: ~6 log10 cfu/mL
- decline in Lactobacilli [1, 7]: ~6 log10 cfu/mL
- decrease in Clostridia [1, 7]: ~5 log10 cfu/mL
- decrease in lactose fermenting Enterobacteriaceae [1, 7]: ~5 log10 cfu/mL
- overall decline in total anaerobe populations [1, 7]: ~5 log10 cfu/mL
- total facultative anaerobes [1, 7]: remained fairly stable throughout
- percent survival at day 2 post infection ([2]; oral 50 mg/kg/day for 5 days (clindamycin: 10 mg/kg SC pre-treatment only), N=10): 100%
- Median Survival ([2]; oral 50 mg/kg/day for 5 days (clindamycin: pre-treatment only), followed up to 21 days): 12 days
- percent survival by day 3 [2, 8]: 60%
- percent survival on day 13 [2, 8]: 40%
- percent survival on day 16 [2, 8]: 0%
- MIC90 ([3]; read-out: MIC90): 0.06 µg/mL (≈ 0.108 µM)
- MIC90 ([3]; replicate plate A, read-out: MIC90 Plate A): 0.06 µg/mL (≈ 0.108 µM)
- MIC90 ([3]; replicate plate B, read-out: MIC90 Plate B): 0.06 µg/mL (≈ 0.108 µM)
- C. difficile spore germination / vegetative cell proliferation ([4]; all three vessels): no vegetative cell proliferation observed
- C. difficile toxin detection (VERO cell cytotoxicity assay) ([4]; all vessels): No toxin was detected
- signs of simulated CDI ([4]; once daily for 7 days, omadacycline 430 mg/L, moxifloxacin 43 mg/L): did not lead to any signs of simulated CDI
- C. difficile vegetative cell proliferation ([5]; all three vessels): no vegetative cell proliferation observed
- signs of simulated C. difficile infection ([5]; all three vessels): did not lead to any signs of simulated C. difficile infection
- C. difficile toxin detection (VERO cell cytotoxicity assay) ([5]; any vessels): No toxin was detected
- proportion of the absorbed omadacycline eliminated in the gut (biliary/fecal elimination pathway) [6]: approximately 60%
